According to patent US5273991A, “Imidazole-containing compositions and methods of use thereof analogs of distamycin” (Research Corporation Technologies, Inc., priority 1992, dated 1993):

What was measured:
HL-60 (TB) = assay: NCI cytotoxicity screen (SRB); format: cell-based, human
DMS-273 = assay: NCI cytotoxicity screen (SRB); format: cell-based, human
Experimental: Compounds 6, 7, 9 and 10 were tested for cytotoxic properties by the National Cancer Institute, Bethesda, Md. The anticancer drug screen utilized a panel of 60 human tumor cell lines organized into subpanels representing leukemia, melanoma, and cancers of the lung, colon, kidney, ovary and central nervous system and is described by Monks et al. (1991) Journal of the National Cancer Institute 83, 757, which is incorporated herein by reference.
Cell lines were inoculated onto microtiter plates and preincubated for 24-28 hours. 100 μL aliquots of each compound were added to the appropriate microtiter plate wells in each of five 10-fold dilutions starting from a maximum concentration of 10^-4 M in water or DMSO. Cultures were then incubated for an additional 48 hours. Cells were then fixed in situ, followed by staining with sulforhodamine B (SRB), which binds to basic amino acids of cellular macromolecules. The solubilized stain was measured spectrophotometrically to determine relative cell growth or viability in treated and untreated cells. The monoimidazole analogs of Compounds 6, 7, 9 and 10 and the formamido analog corresponding to Compounds 7 and 10 are devoid of activity against the panel of cancer cell lines in Table III.

poly(dG.dC) = assay: circular dichroism (CD) titration, poly(dG.dC); format: binding
Experimental: The DNA binding properties of the present compounds were assessed by circular dichroism (CD) titration experiments. Methods for CD titration can be found, for example, in Zimmer et al. (1986) Prog. Biophys. Molec. Biol 47, 31. The conformation of DNA can be readily determined by CD experiments, and for B-DNA, characteristic positive and negative Cotton effects are observed at 260 and 245 nm, respectively.
The interaction of Compounds 6-10 to a number of DNAs [calf thymus, poly(dA dT) and poly(dG dC)] were analyzed by CD titration studies. All the CD titration experiments were performed using identical procedures, concentrations of DNA, and increments of drug:DNA ratios (or `r`, i.e. moles of drug to moles of DNA base pairs). Therefore, the differences observed in the CD spectra for the titration of each of the compounds to the polydeoxynucleotides may be directly compared to reflect their DNA binding properties.
All experiments were performed with a continuous flow of nitrogen purging the polarimeter. A 1 mm path length jacketed cell was used and all experiments were done at room temperature. Initially, DNA [0.02 μ moles (base pairs), 130 μL] was placed in the cell and the spectrum of the DNA alone was collected. Aliquots of drug were added and the spectra collected. The drug solutions were 1 mM and amounts of the drug added correspond to a drug to base pair ratio of 0.05, 0.10, 0.15, 0.20, 0.25, 0.30, 0.40, 0.50, 0.60, 0.80, 1.00. The scan parameters were set and standard for all experiments. The spectra were collected from 400 nm to 200 nm. The sensitivity was set at 1 mdeg and the scan speed was set at 20 nm per minute. Three scans were accumulated and automatically averaged by the computer. The λmax and ellipticity (mdeg) for each spectrum were collected from the raw scans and the final plots were smoothed by the noise reduction program on the computer. […] The induced CD band is presumably due to the uv absorption π to π^* transition of the drug in the drug:DNA complex. […] Therefore interaction of these drugs with DNA causes only minor conformational changes in the double helix.

poly(dAdT) = assay: ethidium displacement assay, poly(dAdT); format: binding; conditions: ± 0.02 × 10^5 M^-1, pH 7.4
Text: (§1) The ethidium displacement assay is based on the fact that ethidium binding to DNA causes a large (approximately 25 fold) florescence enhancement as a result of the hydrophobic environment surrounding the ethidium molecule. Displacement of ethidium results in decreased fluorescence, and thus binding constants of drugs to DNA can be estimated and compared by measuring the loss of fluorescence as a function of added drug. The drug concentration which produces 50% inhibition of florescence is approximately inversely proportional to the apparent binding constant.
(§2) The relative DNA binding constants (Kapp) of distamycin and Compounds 6-10 to calf thymus DNA, T4 coliphage DNA, poly(dAdT) and poly(dGdC) were determined using the ethidium displacement assay (Morgan et al., 1979). The Kapp of ethidium bromide (Debart et al., 1989) is included for comparison. 25 μL of a 2A260 DNA solution was added to 2 mL of ethidium bromide buffer (250 μL of 1.3 mM ethidium bromidestock, 314.9 mg Tris-HCl, 60.8 mg Tris base and 930/mg of Na2 EDTA.2H2 O in 250 ml H2 O) pH 7.4 and the maximum fluorescence was measured (excitation wavelength=546 nm, emission wavelength=600 nm) at ambient temperature.
(§3) DNA solutions of 2A260 were prepared as follows: T4 coliphage DNA: 10 units of DNA were dissolved in 1 mL of 10 mM sodium phosphate (pH 7.1) and 0.25 mM EDTA buffer to give a 10A260 solution. 0.3 mL of the stock solution were diluted to 1.5 mL with 10 mM sodium phosphate (pH 7.1) and 0.25 mM EDTA buffer to give a 2A260 solution. Calf thymus DNA: 100 units of DNA were dissolved in 5 mL of 10 mM sodium phosphate (pH 7.1) and 0.25 mM EDTA buffer to give a 20A260 solution. 1.5 mL of the stock solution were diluted to 15 mL with 10 mM sodium phosphate (pH 7.1) and 0.25 mM EDTA buffer to give a 2A260 solution. Poly(dA-dT) and Poly(dG-dC) DNA: 100 units of DNA were dissolved in 10 mL of 10 mM sodium phosphate pH 7.1) and 0.25 mM EDTA buffer to give a 10A260 solution. 3 mL of the stock solution were diluted to 15 mL with 10 mM sodium phosphate (pH 7.1) and 0.25 mM EDTA buffer to give a 2A260 solution.
(§4) Aliquots of 10 mM stock drug solution (1 mg of drug to be tested was dissolved with 1 mole equivalent of 0.1M HCl, and then diluted with appropriate volume of distilled water to make a 10 mM solution) were then added to the fluorescing solution and the florescence measured after each addition until a 50% reduction of fluorescence occurred. If the 10 mM stock solution lowered the % fluorescence too quickly, the stock solution was further diluted to 1 mM prior to titration. The apparent binding constant was then calculated from this equation: KEtBr [EtBr]=Kapp [drug], where [drug]=the concentration of drug at a 50% reduction of fluorescence and KEtBr [1×10^7 M^-1 for calf thymus and coliphage T4 DNA^18, 9.5×10^6 M^-1 for poly(dA.dT)^30, and 9.9×10^6 M^-1 for poly(dG.dC)^30 ] and [EtBr] were known. The concentration of ethidium bromide was 1.3 μM. The Kapp values are shown in Table I. In a separate experiment, the Kapp of Compound 5 for calf thymus DNA and poly[dGdC] were determined to be 0.3×10^5 M^-1 and 2.6×10^5 M^-1, respectively. The error in these measurements is ±[…].

calf thymus DNA = assay: ethidium displacement assay, calf thymus DNA; format: binding; conditions: ± 0.02 × 10^5 M^-1, pH 7.4
Text: as §1, §2, §3, §4

[1] = 48 h, Small Cell Lung Cancer DMS-273

| SMILES | IC50 (HL-60 (TB); 48 h, Leukemia HL-60 (TB)) | IC50 (HL-60 (TB); HL-60 (TB), subsequent test date) | IC50 (DMS-273; DMS-273, subsequent test date) | induced negative CD band, ellipticity (poly(dG.dC); 330 nm, r'=0.2) | isobestic point (poly(dG.dC); poly(dG.dC)) | Association constant Kapp (poly(dAdT)) | Association constant Kapp (calf thymus DNA) | negative Cotton effect, ellipticity (poly(dG.dC); 333 nm, r'=0.2) | new positive Cotton effect shoulder, wavelength (poly(dG.dC); poly(dG.dC)) | IC50 (DMS-273; [1]) | negative Cotton effect band, ellipticity (poly(dG.dC); 315 nm, equimolar titration) |
| --- | --- | --- | --- | --- | --- | --- | --- | --- | --- | --- | --- |
| CN(C)CCNC(=O)c1nc(NC(=O)c2nc(NC(=O)c3ccc(N(CCCl)CCCl)cc3)cn2C)cn1C [Compound 6, N-(N',N'-dimethylaminoethyl)-1-methyl-4-{4-[4,4-bis(2-chloroethyl)aminobenzamido]-1-methylimidazole-2-carboxamido}imidazole-2-carboxamide] | 7.84 µM | 7.93 µM | 31.3 µM | 0.7 mdeg | 297 nm | 475000 M⁻¹ | 456000 M⁻¹ | – | – | – | – |
| CN(C)CCNC(=O)c1nc(NC(=O)c2nc(NC(=O)c3nc(NC(=O)c4ccc(N(CCCl)CCCl)cc4)cn3C)cn2C)cn1C [Compound 7, N-(N',N'-dimethylaminoethyl)-1-methyl-4-{1-methyl-4-[4-(4,4-bis-(2-chloroethyl)aminobenzamido)-1-methylimidazole-2-carboxamido]imidazole-2-carboxamido}imidazole-2-carboxamide] | 0.72 µM | – | 0.99 µM | – | 283 nm | 950000 M⁻¹ | 591000 M⁻¹ | 1 mdeg | – | – | – |
| CN(C)CCNC(=O)c1nc(NC(=O)c2nc(NC(=O)c3nc(NCc4ccc(N(CCCl)CCCl)cc4)cn3C)cn2C)cn1C [Compound 8, N-(N',N'-dimethylaminoethyl)-1-methyl-4-{1-methyl-4-[4-(4,4-bis-(2-chloroethyl)aminobenzylamino)-1-methylimidazole-2-carboxamido]imidazole-2-carboxamido}imidazole-2-carboxamide] | – | – | – | – | – | 457000 M⁻¹ | 473000 M⁻¹ | – | 288 nm | – | – |
| CN(C)CCNC(=O)c1nc(NC(=O)c2nc(NC(=O)CCCc3ccc(N(CCCl)CCCl)cc3)cn2C)cn1C [Compound 9, N-(N',N'-dimethylaminoethyl)-1-methyl-4-{4-[4,4-bis(2-chloroethyl)aminophenyl-1-butanamido]-1-methylimidazole-2-carboxamido}imidazole-2-carboxamide] | 43.8 µM | – | – | – | – | 54000 M⁻¹ | 64000 M⁻¹ | – | – | 42.7 µM | – |
| CN(C)CCNC(=O)c1nc(NC(=O)c2nc(NC(=O)c3nc(NC(=O)CCCc4ccc(N(CCCl)CCCl)cc4)cn3C)cn2C)cn1C [Compound 10, N-(N',N'-dimethylaminoethyl)-1-methyl-4-{1-methyl-4-[4-(4,4-bis(2-chloroethyl)aminophenyl-1-butanamido)-1-methylimidazole-2-carboxamido]imidazole-2-carboxamido}imidazole-2-carboxamide] | 7.89 µM | – | – | – | – | 13000 M⁻¹ | 22000 M⁻¹ | – | – | 6.78 µM | -1.0 mdeg |
